Measured values taken from US20250223306A1, “TEAD INHIBITORS AND METHODS OF USE” (Sporos BioDiscovery, Inc., priority 2022, published 2025).

Columns and labels:
Assay type in all cases: cell-based
[1] = tested on: NCI-H23 cells; assay: Proliferation and cell viability, CellTiter-Glo 2.0 (CTG) assay; conditions: 144 hrs
[2] = tested on: NCI-H226 cells; assay: Proliferation, Cell Titer One assay; conditions: 6 days
Protocol: (§1) Cell proliferation of a TEAD dependent NF2-null mesothelioma cell line, NCI-H226, and a TEAD-non-dependent mesothelioma cell line, NCI-H28 was assayed using two different protocols: • a) CellTiter-Glo 2.0 (Promega #G9243). The effect of the TEAD inhibitors disclosed herein on cell proliferation was determined in TEAD1-genetically dependent cell line NCI-H226 (responder cell line) and TEAD-independent cell lines (NCI-H23, HEK293T), as non-responder, negative control. Cells were seeded in 96-well plates (Thermo Scientific #167008) in growth media (RPMI-1640, Gibco #61870-010) for NCI-H226 and NCI-H23 or DMEM (Gibco #31966-021, HEK293T) with 10% Heat Inactivated Fetal Bovine Serum (Gibco 10500-064) at 800 (NCI-H226 and HEK-293T) or 2000 (NCI-H23) cells per well at 37° C., 5% CO2, humidified incubator; 24 hours later, fresh growth media containing test compound or DMSO vehicle was added and incubated with the cells for 144 hrs. TEAD inhibitor stocks were made at a 1000× fold excess in DMSO, and a dose response test compound dose range of 10,000 to 0.1 nM was used. Each treatment was carried out in triplicate. After 144 hrs of treatment, relative cell viability numbers were determined using the CellTiter-Glo 2.0 assay following the manufacturer's instructions. Test plates and CellTiter-Glo 2.0 reagent were allowed to equilibrate to room temperature. CellTiter-Glo 2.0 reagent was added at 1:1 reagent to media ratio to the 96-well cell plates, plates were placed on a plate shaker for 2 minutes and then incubated at room temperature for a further 10 minutes to allow complete cell lysis to occur. The mix was then transferred to white, 96-well luminometer assay plates (Greiner Bio One #655075). Luminescence was quantified using a CLARIOStar Plus multi-mode plate reader (BMG Labtech) in luminescence detection mode with the recommended settings (ultra-Glo pre-set: emission 545-50 nm with autofocus and enhanced dynamic range on). Relative cell density was expressed as a function of inhibitor concentration, with respect to DMSO-only control wells. Data where plotted using GraphPad Prism and IC50 values for the biological effect were calculated using the EC50 non-linear fit function using a sigmoidal, 4-parameter logistic, least squares fit with no constraints. • b) Cell Titer One (Promega, #G3582). The effect of the TEAD inhibitors disclosed herein on cell proliferation was also determined using the Promega Substrate Cell Titer Aqueous One Solution Reagent. The TEAD inhibitors were evaluated for the effects on cell proliferation responder (H226) and non-responder negative control cancer cell lines (CAMA1, H28), as well as non-transformed normal human cells (HUVEC, NHDF). Dissociated cells were resuspend in media (depending on cell line, either in DMEM, RPMI, or EMEM all with 10% FBS, with gentamicin as an antibiotic). Cells were seeded at 100 μL/well at 750 cells per well in 96-well plates and allowed to settle and attach. After an incubation of 24 hrs (37° C., 5% CO2, humidified incubator), 100 μL of test compound-containing media was added. A dilution series of 2000× concentrated stock of test compounds was prepared in DMSO, for final concentrations from 0.1 to 10,000 nM. After addition of test compound-containing media, cells were incubated for 6 days at 37° C., 5% CO2, humidified incubators). To measure cell density, 20 μL of Promega Substrate Cell Titer 96 Aqueous One Solution Reagent (Promega, #G3582) to each well was added according to the manufacturer's instructions. Plates were incubated at 37° C. for usually 3-8 hrs, to reach in the control cells (without compound) an OD of 1.5 at 490 nm. The OD was measured using Vmax [Molecular Devices] spectrophotometer plate reader. Media only-wells were used as background controls and cell densities normalized to DMSO vehicle control. ECs were taken as the concentration achieving 50% of maximal growth inhibition.

[3] = tested on: NCI-H28 cells; assay: Proliferation, Cell Titer One assay; conditions: 6 days
Protocol: as §1

[4] = Homo sapiens, NCI-H23, H23-non-responder cell line

SMILES | IC50 [1, 4] | IC50 ([2]; Homo sapiens, NCI-H226, 144 h) | IC50 ([3]; Homo sapiens, NCI-H28, 144 h) | IC50 ([1]; H23-non-responder cell line) | IC50 [2] | IC50 [3]
C[C@H](NC(=O)c1cnc2c(C3=CC[C@@H](C(F)(F)F)CC3)cccc2c1)c1ncco1 (single isomer, unassigned) [Compound 19, N-(1-(oxazol-2-yl)ethyl)-8-(4-(trifluoromethyl)cyclohex-1-en-1-yl)quinoline-3-carboxamide] | > 1000 nM | < 200 nM | > 1000 nM | – | – | –
C[C@H](NC(=O)c1cnc2c(C3=CC[C@@H](C(F)(F)F)CC3)cccc2c1)c1ncco1 (single isomer, unassigned) [Compound 20, N-(1-(oxazol-2-yl)ethyl)-8-(4-(trifluoromethyl)cyclohex-1-en-1-yl)quinoline-3-carboxamide] | – | – | – | > 1000 nM | < 200 nM | > 1000 nM
C[C@H](NC(=O)c1cnc2c(C3=CCC(C(F)(F)F)CC3)cccc2c1)c1ccccn1 (stereo partly drawn) [Compound 2, N—((S)-1-(pyridin-2-yl)ethyl)-8-(4-(trifluoromethyl)cyclohex-1-en-1-yl)quinoline-3-carboxamide] | > 1000 nM | < 200 nM | > 1000 nM | – | – | –
C[C@H](CO)NC(=O)c1cnc2c(C3=CCC(C(F)(F)F)CC3)cccc2c1 (stereo partly drawn) [Compound 7, N—((R)-1-hydroxypropan-2-yl)-8-(4-(trifluoromethyl)cyclohex-1-en-1-yl)quinoline-3-carboxamide] | > 1000 nM | < 200 nM | > 1000 nM | – | – | –
O=C(NCc1ncco1)c1cnc2c(C3=CCC(C(F)(F)F)CC3)cccc2c1 (stereo not drawn) [Compound 11, N-(oxazol-2-ylmethyl)-8-(4-(trifluoromethyl)cyclohex-1-en-1-yl)quinoline-3-carboxamide] | > 1000 nM | < 200 nM | > 1000 nM | – | – | –
